Values of other authors, collected in publication PMC6376154 (International Journal for Parasitology: Drugs and Drug …, 2019).
Like-named read-outs stand apart in the source and are kept apart here.

System: P. falciparum 3D7 asexual blood stage
Details: cited from earlier work
[1] = MMV Malaria Box data sheet (supplement mmc2.xls), ref MMV data sheet, read-out: EC50_nM
[2] = MMV Malaria Box sheet, ref MMV data sheets, read-out: EC50_nM
[3] = MMV Malaria Box data sheet, ref MMV data sheets, read-out: EC50_nM
[4] = MMV Malaria Box sheet, ref MMV data sheets
[5] = source GNF, ref ChEMBL_NTD, read-out: CHEMBL EC50
[6] = MMV Malaria Box data sheet, ref MMV data sheets
[7] = source GSK, ref ChEMBL_NTD, read-out: CHEMBL EC50
[8] = MMV Malaria Box data sheet (supplement mmc2.xls), ref MMV data sheet
[9] = value(s) per source (GSK, GNF, StJude), separated by semicolon, ref ChEMBL-NTD, read-out: CHEMBL EC50
[10] = source StJude, ref ChEMBL_NTD, read-out: CHEMBL EC50
[11] = ChEMBL-NTD value per source (GNF, GSK, StJude), several values in a cell follow the order of the sources, read-out: CHEMBL EC50

CCn1nc(-c2ccc(C(=O)OC)cc2)nc2c(=O)n(C)c(=O)nc1-2 [MMV306025]
EC50 [1]: 0.693 µM

CCOc1ccccc1CN1CCc2nc3cc(C(C)(C)C)nn3c(O)c2C1 [MMV396595]
EC50 [2]: 1.01 µM

CCOc1c(Cl)cc(CNCC(O)c2ccccc2)cc1OC (stereo not shown) [MMV396632]
EC50 [2]: 1.05 µM

CCOc1cc(CNC(C)C(O)c2ccccc2)cc(Cl)c1OCC (stereo not shown) [MMV396633]
EC50 [1]: 1.24 µM

Cc1cc(N2CCCC2)nc(Nc2ccc(NC(=O)CCc3ccccc3)cc2)n1 [MMV396669]
EC50 [2]: 1.07 µM

O=C(NCC(c1ccsc1)N1CCCCCC1)c1ccc(C(F)(F)F)cc1 (stereo not shown) [MMV396672]
EC50 [3]: 0.433 µM

O=C(CSc1nccn2nc(-c3ccccc3)cc12)Nc1cc(C(F)(F)F)ccc1Cl [MMV396678]
EC50 [3]: 0.218 µM

COc1ccc(-c2cc3c(SCC(=O)Nc4cc(C(F)(F)F)ccc4Cl)nccn3n2)cc1 [MMV396679]
EC50 [3]: 0.0899 µM

Cc1ccc(-c2cc3c(SCC(=O)Nc4cc(C(F)(F)F)ccc4Cl)nccn3n2)cc1 [MMV396680]
EC50 [3]: 0.0928 µM

Cc1cc(NC(=O)c2cccc(C(F)(F)F)c2)n(-c2nc(-c3ccc4c(c3)OCO4)cs2)n1 [MMV396681]
EC50 [1]: 0.959 µM

C[n+]1c2ccccc2nc2ccc(NCCO)cc21 [MMV396693]
EC50 [3]: 0.296 µM

CCN(CC)CCNc1ncnc2c1[nH]c1ccc(Cl)cc12 [MMV396703]
EC50 [3]: 0.406 µM

CN1CCN(c2ncnc3c2[nH]c2ccc(Cl)cc23)CC1 [MMV396704]
EC50 [2]: 1.19 µM

COc1cccc(Cn2c(Oc3ccccc3)nc3c2c(=O)n(C)c(=O)n3C)c1 [MMV396705]
EC50 [2]: 1.39 µM

CC1(c2ccccc2)Nc2ccccc2-c2nc3ccccc3n21 (stereo not shown) [MMV396715]
EC50 [2]: 1.73 µM

COc1cccc(C2(C)Nc3ccccc3-c3nc4ccccc4n32)c1 (stereo not shown) [MMV396719]
EC50 [1]: 1.15 µM

OC(CNCC1CCCO1)Cn1c2ccc(Cl)cc2c2cc(Cl)ccc21 (stereo not shown) [MMV396736]
EC50 [1]: 1.06 µM

CC(C)CNC(=O)c1c(N)n(CCc2ccccc2F)c2nc3ccccc3nc12 [MMV396744]
EC50 [1]: 0.832 µM

COc1ccc2c(c1)C1(Nc3ccccc3-c3nc4ccccc4n31)C(=O)N2 (stereo not shown) [MMV396749]
EC50 [2]: 0.928 µM

CC(C)(C)CC(C)(C)NCC(O)COc1ccc(Cl)cc1Cl (stereo not shown) [MMV396794]
EC50 [1]: 1.16 µM

COc1ccc(-c2c(C)nn3c(N)c(C#N)cnc23)cc1OC [MMV396797]
EC50 [3]: 0.477 µM

Cc1cccc(-n2ncc3c(=O)[nH]c(-n4nc(C)cc4NC(=O)c4cc5ccccc5o4)nc32)c1 [MMV403679]
EC50 [1]: 0.929 µM

CCN(CC)CCCNc1ccnc2cc3ccccc3cc12 [MMV665783]
percent_inh @ 5 uM [4]: 90%
EC50 [5]: 0.0338 µM

CC(C)(C)c1ccc(O)c(CNC2CCCCC2)c1 [MMV665785]
percent_inh @ 5 uM [6]: 96%
EC50 [3]: 0.161 µM
EC50 [5]: 0.251 µM
EC50 [7]: 0.264 µM

O=c1cc(NC2CCN(CCCc3ccccc3)CC2)c2cc(Cl)ccc2o1 [MMV665786]
percent_inh @ 5 uM [4]: 97%
EC50 [2]: 0.846 µM
EC50 [5]: 0.408 µM

CC(NCc1ccccc1)c1cc(Cl)ccc1O (stereo not shown) [MMV665789]
percent_inh @ 5 uM [8]: 95%
EC50 [1]: 0.603 µM
EC50 [9]: 0.592 µM

FC(F)(F)c1cccc(Nc2nc3ccccc3nc2Nc2cccc(C(F)(F)F)c2)c1 [MMV665794]
percent_inh @ 5 uM [4]: 99%
EC50 [2]: 0.313 µM
EC50 [7]: 0.137 µM

CCOc1cc(Br)c(C(C)NC(=O)c2cccc(OC)c2)cc1OCC (stereo not shown) [MMV665796]
percent_inh @ 5 uM [8]: 96%
EC50 [1]: 1.43 µM
EC50 [9]: 0.168 µM

CCCCOC(=O)c1ccc(Nc2cc(C)nc3ccc(OC)cc23)cc1 [MMV665797]
percent_inh @ 5 uM [4]: 99%
EC50 [2]: 0.584 µM
EC50 [7]: 0.64 µM

FC(F)(F)c1cccc(Nc2nc(-c3ccccc3)nc3ncccc23)c1 [MMV665798]
percent_inh @ 5 uM [8]: 74%
EC50 [9]: 0.802 µM

COc1ccc(C(=O)Nc2ccc(Cl)cc2C(=O)Nc2ccncc2)cc1 [MMV665799]
percent_inh @ 5 uM [8]: 93%
EC50 [9]: 0.822 µM

CCOc1cc(Cl)c(C(C)NC(=O)c2cccc(OC)c2)cc1OCC (stereo not shown) [MMV665803]
percent_inh @ 5 uM [8]: 98%
EC50 [1]: 0.728 µM
EC50 [9]: 0.956 µM

CCOc1ccc(-c2nonc2NC(=O)c2cccc(C)c2)cc1OCC [MMV665805]
percent_inh @ 5 uM [6]: 86%
EC50 [3]: 0.117 µM
EC50 [10]: 0.0619 µM

Cc1c(C)n(CC(O)CNC2CCCCC2C)c2ccccc12 (stereo not shown) [MMV665806]
percent_inh @ 5 uM [4]: 96%
EC50 [2]: 0.769 µM
EC50 [10]: 0.527 µM

O=C(Nc1cccc(C(F)(F)F)c1)c1cc(Cl)ccc1O [MMV665807]
percent_inh @ 5 uM [8]: 93%
EC50 [9]: 0.973 µM

Oc1ccc(Br)cc1CN1CCN(Cc2ccc(Cl)cc2)CC1 [MMV665809]
EC50 [11]: 1.48 µM

CCc1ccc(CNCC(O)c2ccccc2)cc1 (stereo not shown) [MMV665812]
EC50 [11]: 2.17 µM

CCOC(=O)c1cnc2ccc(OC)cc2c1NCc1ccccc1 [MMV665813]
EC50 [11]: 2.77 µM

CC(C)(C)CC(C)(C)NCC(O)COc1ccc2c(c1)CCC2 (stereo not shown) [MMV665817]
percent_inh @ 5 uM [6]: 78%
EC50 [10]: 4.42 µM

Cn1c(C(=O)c2cccc3ccccc23)nc2ccccc21 [MMV665824]
EC50 [11]: 0.00692 µM

COc1cccc(NC(=O)Cn2c(C)c(C#N)c3ccccc32)c1 [MMV665826]
percent_inh @ 5 uM [8]: 95%
EC50 [1]: 1.09 µM

CCOC(=O)c1cn(CC)c2cc(N3CCCCC3)c(F)cc2c1=O [MMV665827]
percent_inh @ 5 uM [6]: 100%
EC50 [3]: 0.119 µM
EC50 [5]: 0.166 µM
EC50 [7]: 0.125 µM

CC1CC2=C(CC1CNCCCN(C)C)C(C)(C)CCC2 (stereo not shown) [MMV665830]
EC50 [11]: 0.25 µM

CCOC(=O)c1c(NC(=O)c2ccccc2)sc2c(O)c(CN(CC)CC)ccc12 [MMV665831]
percent_inh @ 5 uM [6]: 96%
EC50 [3]: 0.205 µM
EC50 [5]: 0.267 µM
EC50 [7]: 0.969 µM

O=C(Nc1ccc(-c2nc3ccccc3[nH]2)cc1)c1ccc(Cl)c(Cl)c1 [MMV665840]
EC50 [11]: 0.523 µM

Oc1c2c(nc3ccccc13)CCCC2 [MMV665843]
percent_inh @ 5 uM [4]: 82%
EC50 [5]: 0.628 µM

Oc1ccc(Cl)cc1CNc1nc2ccccc2[nH]1 [MMV665850]
percent_inh @ 5 uM [6]: 95%
EC50 [5]: 0.921 µM

O=C(Nc1ccc(Cl)c(Cl)c1)Nc1ccc(Cl)c(Cl)c1 [MMV665852]
EC50 [11]: 1.03 µM

CCOc1c(Cl)cc(CNC(C)C(O)c2ccccc2)cc1OC (stereo not shown) [MMV665857]
percent_inh @ 5 uM [8]: 98%
EC50 [9]: 1.65 µM

CCCCNc1nc(NC(C)(C)C)nc(NC(C)(C)C)n1 [MMV665864]
EC50 [11]: 2.16 µM

Cc1cc(Nc2ccc(C)c(Cl)c2)n2nc(C(F)(F)F)nc2n1 [MMV665874]
percent_inh @ 5 uM [6]: 98%
EC50 [3]: 0.00671 µM
EC50 [7]: 0.0158 µM

Cn1c(=O)n(C)c2cc(CNCCNc3ccnc4cc(Cl)ccc34)ccc21 [MMV665875]
EC50 [11]: 0.14 µM

CCC(c1ccccc1)c1nn2c(-c3cccs3)nnc2s1 (stereo not shown) [MMV665876]
percent_inh @ 5 uM [6]: 99%
EC50 [3]: 0.259 µM
EC50 [7]: 0.167 µM

COc1cccc(NC(=O)[C@H](C(C)C)n2c(=O)[nH]c3ccccc3c2=O)c1 [MMV665878]
percent_inh @ 5 uM [6]: 99%
EC50 [3]: 0.139 µM
EC50 [7]: 0.266 µM

CC(C)(C)C(=O)Nc1ccc(C(=O)Nc2cccc(-c3nc4ccccc4[nH]3)c2)cc1 [MMV665879]
percent_inh @ 5 uM [8]: 91%
EC50 [9]: 0.282 µM

COc1ccc(CNC(=O)c2cc3c(=O)n4ccccc4nc3n(CCc3ccccc3)c2=N)cc1 [MMV665881]
EC50 [11]: 0.33 µM

OC(CNC1CCCCC1)Cn1c2ccc(I)cc2c2cc(I)ccc21 (stereo not shown) [MMV665882]
EC50 [11]: 0.337 µM

O=C(Nc1cccc(-c2nc3ccccc3[nH]2)c1)c1cccc(NC(=O)c2ccco2)c1 [MMV665883]
percent_inh @ 5 uM [4]: 95%
EC50 [2]: 0.745 µM
EC50 [7]: 0.36 µM

CC(Oc1ccc(NC(=O)c2cccs2)cc1)C(=O)c1ccc(Cl)cc1 (stereo not shown) [MMV665886]
EC50 [11]: 0.774 µM

O=C(Nc1ccccc1O)c1ccc(Oc2cccc(C(=O)Nc3ccccc3O)c2)cc1 [MMV665888]
percent_inh @ 5 uM [8]: 91%
EC50 [9]: 0.799 µM

COc1ccc(-c2nonc2NC(=O)c2cccc(C)c2)cc1OC [MMV665890]
percent_inh @ 5 uM [8]: 95%
EC50 [9]: 0.806 µM

c1ccc(-c2ccc(-c3nc4ccccc4[nH]3)cc2)cc1 [MMV665891]
percent_inh @ 5 uM [8]: 52%
EC50 [1]: 1.07 µM
EC50 [9]: 0.809 µM

CC(=O)c1sc(NC(=O)Nc2ccc(C)cc2C)nc1C [MMV665894]
EC50 [11]: 0.906 µM

COc1ccc2nc(N)nc(C)c2c1 [MMV665897]
percent_inh @ 5 uM [4]: 63%
EC50 [7]: 0.927 µM

COc1cc(C(=O)Nc2ccc(-c3nc4ccccc4[nH]3)cc2)cc(OC)c1OC [MMV665898]
EC50 [11]: 0.982 µM

O=C(c1ccccc1F)N(Cc1ccc(Cl)cc1)c1ccccn1 [MMV665899]
percent_inh @ 5 uM [8]: 59%
EC50 [9]: 1.02 µM

O=C(Nc1ccc(CN2CCOCC2)cc1)c1ccc(-c2ccc(Br)cc2)o1 [MMV665901]
percent_inh @ 5 uM [8]: 96%
EC50 [1]: 1.36 µM
EC50 [9]: 1.12 µM

N=c1n(CCN2CCCCC2)c2ccccc2n1CC(O)c1cccc(Br)c1 (stereo not shown) [MMV665902]
percent_inh @ 5 uM [8]: 98%
EC50 [1]: 0.893 µM
EC50 [9]: 1.14 µM

COCCn1c(C)nc2ccccc2c1=O [MMV665904]
percent_inh @ 5 uM [4]: 59%
EC50 [7]: 1.46 µM

Cc1ccc(-c2cc(C(=O)Nc3ccc(S(=O)(=O)N4CCCCC4)cc3)[nH]n2)c(O)c1 [MMV665906]
percent_inh @ 5 uM [8]: 94%
EC50 [1]: 0.535 µM
EC50 [9]: 1.77 µM

COc1ccc(N2CCN(C(CNC(=O)CC(C)(C)C)c3ccc4c(c3)OCO4)CC2)cc1 (stereo not shown) [MMV665908]
percent_inh @ 5 uM [4]: 95%
EC50 [10]: 4.28 µM

O=C(Nc1nc(-c2ccccn2)cs1)c1ccccc1Br [MMV665909]
percent_inh @ 5 uM [6]: 97%
EC50 [3]: 1.36 µM
EC50 [10]: 4.53 µM

CCOc1ccc(-c2nc(NC(=O)c3cccc(S(C)(=O)=O)c3)sc2C)cc1 [MMV665913]
percent_inh @ 5 uM [8]: 95%
EC50 [9]: 15 µM
